From paper PMC10714400, “Antimicrobial Peptide–Peptoid Hybrids with and without Membrane Disruption” (ACS Infectious Diseases, 2023)
In brackets after ≈: the same amount, converted by molar mass. Where two headings read alike, the source gives them in different places. Where a SMILES comes first, the peptide text is derived from it. [ ]: non-standard residue; d: D form. Nlys = NCCCCNCC(=O)O

Experiments:
S. maltophilia = system: S. maltophilia
How it was run: (§1)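 MTT added (20–30 min, room temperature); MIC read by eye as lowest concentration inhibiting visible growth (yellow). Polymyxin B positive control from 16 μg/mL.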

S. aureus Newman = conditions: Newman
How it was run: as §1

B. cenocepacia = conditions: pH 7.4
How it was run: as §1

P. aeruginosa PA14 = system: P. aeruginosa PA14
How it was run: as §1

S. epidermis = system: S. epidermis
How it was run: as §1

HEK293 cells = test: Cell viability assay by Alamar blue; conditions: read-out: Toxicity on HEK293 cells; CSV
Experimental: The data are represented as the mean value ± SD, n = 3. […] (c) Vesicle leakage assay for a selection of compounds. Lipid vesicles made of EYPG or EYPC were suspended in a buffer (10 mM TRIS, 107 mM NaCl, pH 7.4). After 45 s, the indicated compound was added to reach the desired concentration. After 240 s, 30 μL of 1.2% TritonX-100 was added for full fluorescein release. […] See Supporting Information for the full curves, all of the data, and procedures.
HEK293 cells were cultured and maintained in DMEM high glucose (Dulbecco’s modified Eagle medium, Sigma Aldrich) medium supplemented with 10% FBS (Sigma Aldrich) and 1% penicillin/streptomycin. A549 cells were cultured and maintained in RPMI-1640 medium (Sigma Aldrich), supplemented with 10% FBS (Sigma Aldrich) and 1% penicillin/streptomycin. The cells were handled and subcultured according to the manufacturer instructions. Cells were incubated in a humidified incubator at 37 °C in the presence of 5% CO2.
Assays on HEK293, A549 cells were performed as described earlier.[74] […]

[1] = system: human red blood cells (hRBC); test: Minimum hemolytic concentration (MHC); type: cell-based
Description: We also measured minimal hemolysis concentrations (MHC) on human red blood cells by serial 2-fold dilution as an indication of toxicity against eukaryotic cells (Table 1).

E. cloacae = system: E. cloacae
How it was run: as §1

PA14 4.18 (pmrB) = system: PA14 4.18 (pmrB)
How it was run: as §1

PA14 2P4 (pmrB) = system: PA14 2P4 (pmrB)
How it was run: as §1

K. pneumoniae OXA-48 = system: K. pneumoniae OXA-48
How it was run: as §1

E. coli W3110 = system: E. coli W3110
How it was run: as §1

P. aeruginosa PAO1 = system: P. aeruginosa PAO1
How it was run: as §1

PA14 4.13 (phoQ) = system: PA14 4.13 (phoQ)
How it was run: as §1

[2] = system: ZEM-1A (clinical MDR P. aeruginosa isolate)
How it was run: as §1

[3] = Circular dichroism, α-helical content; type: physicochemical; conditions: 0.1 mg/mL; for CD %α with 5 mM DPC: 10 mM phosphate buffer pH 7.4, 5 mM DPC; for CD %α with 20% TFE: 10 mM phosphate buffer pH 7.4, 20% TFE

SMILES: CC(C)C[C@H](NC(=O)[C@H](CC(C)C)NC(=O)[C@H](CC(C)C)NC(=O)[C@H](CCCCN)NC(=O)[C@H](CC(C)C)NC(=O)[C@H](CC(C)C)NC(=O)CN(CCCCN)C(=O)[C@H](CC(C)C)NC(=O)[C@H](CC(C)C)NC(=O)CN(CCCCN)C(=O)CNCCCCN)C(N)=O [EB6, kkLLkLLKLLL] (H-[Nlys][Nlys]LL[Nlys]LLKLLL-NH2)
- MIC S. maltophilia, full MH at pH 7.4 (S. maltophilia; 4 h, pH 7.4): 3 ug/mL
- MIC S. maltophilia (S. maltophilia; 4 h, pH 8.5): 2 to 4 µg/mL
- MIC S. maltophilia (S. maltophilia; pH 7.4): 2 to 4 µg/mL
- MIC S. aureus Newman, full MH at pH 7.4 (S. aureus Newman; 4 h, pH 7.4): 8 ug/mL
- MIC S. aureus Newman (S. aureus Newman; 4 h, pH 8.5): 2 µg/mL (≈ 1.51 µM)
- MIC S. aureus Newman (S. aureus Newman; pH 7.4): 8 µg/mL (≈ 6.05 µM)
- MIC B. cenocepacia, full MH at pH 7.4 (B. cenocepacia; 4 h): >32 ug/mL
- MIC B. cenocepacia (B. cenocepacia): >32 µg/mL
- MIC P. aeruginosa PA14, full MH at pH 7.4 (P. aeruginosa PA14; PA14, 4 h, pH 7.4): 3 ug/mL
- MIC P. aeruginosa PA14 (P. aeruginosa PA14; PA14, pH 7.4): 2 to 4 µg/mL
- MIC P. aeruginosa PA14 (P. aeruginosa PA14; PA14, pH 8.5): 2 µg/mL (≈ 1.51 µM)
- MIC S. epidermis, full MH at pH 7.4 (S. epidermis; 4 h, pH 7.4): 3 ug/mL
- MIC S. epidermis (S. epidermis; 4 h, pH 8.5): 2 µg/mL (≈ 1.51 µM)
- MIC S. epidermis (S. epidermis; pH 7.4): 2 to 4 µg/mL
- IC50 (HEK293 cells): 54 ± 1 µM
- MHC [1]: 250 µg/mL
- MHC (hemolysis) ([1]; red cells of human): 250 to 1000 µg/mL
- MIC E. cloacae, full MH at pH 7.4 (E. cloacae; 4 h, pH 7.4): 4 ug/mL
- MIC E. cloacae (E. cloacae; Table S3, […] MH at pH 8.5): 4 µg/mL (≈ 3.03 µM)
- MIC P. aeruginosa PA14 4.18, […] MH at pH 8.5 (PA14 4.18 (pmrB); CSV, […] MH at pH 8.5): 2 ug/mL
- MIC P. aeruginosa PA14 4.18, full MH at pH 7.4 (PA14 4.18 (pmrB); CSV, full MH at pH 7.4): 16 ug/mL
- MIC PA14 4.18 (pmrB) (PA14 4.18 (pmrB); MH pH 7.4, 16–20 h at 37 °C): 16 µg/mL (≈ 12.1 µM)
- MIC P. aeruginosa PA14 4.18 (PA14 4.18 (pmrB); Table S3, […] MH at pH 8.5): 2 µg/mL (≈ 1.51 µM)
- MIC P. aeruginosa PA14 2P4, […] MH at pH 8.5 (PA14 2P4 (pmrB); CSV, […] MH at pH 8.5): 2 ug/mL
- MIC P. aeruginosa PA14 2P4, full MH at pH 7.4 (PA14 2P4 (pmrB); CSV, full MH at pH 7.4): 32 ug/mL
- MIC PA14 2P4 (pmrB) (PA14 2P4 (pmrB); MH pH 7.4, 16–20 h at 37 °C): 32 µg/mL (≈ 24.2 µM)
- MIC P. aeruginosa PA14 2P4 (PA14 2P4 (pmrB); Table S3, […] MH at pH 8.5): 2 µg/mL (≈ 1.51 µM)
- MIC K. pneumoniae OXA-48, […] MH at pH 8.5 (K. pneumoniae OXA-48; CSV, […] MH at pH 8.5): 8 ug/mL
- MIC K. pneumoniae OXA-48, full MH at pH 7.4 (K. pneumoniae OXA-48; CSV, full MH at pH 7.4): 8 ug/mL
- MIC K. pneumoniae OXA-48 (K. pneumoniae OXA-48; Table S3, […] MH at pH 8.5): 8 µg/mL (≈ 6.05 µM)
- MIC E. coli W3110, […] MH at pH 7.4 (E. coli W3110; CSV, […] MH at pH 7.4): 2 ug/mL
- MIC E. coli W3110, […] MH at pH 8.5 (E. coli W3110; CSV, […] MH at pH 8.5): 2 ug/mL
- MIC E. coli W3110, full MH at pH 7.4 (E. coli W3110; CSV, full MH at pH 7.4): 2 ug/mL
- MIC E. coli W3110 […] 7.4 (E. coli W3110; Table S2, […] MH, pH 7.4): 2 µg/mL (≈ 1.51 µM)
- MIC E. coli W3110 […] 8.5 (E. coli W3110; Table S2, […] MH, pH 8.5): 2 µg/mL (≈ 1.51 µM)
- MIC E. coli W3110 Full MH 7.4 (E. coli W3110; Table S2, full MH, pH 7.4): 2 µg/mL (≈ 1.51 µM)
- MIC E. coli W3110 Full MH 8.5 (E. coli W3110; Table S2, full MH, pH 8.5): 8 µg/mL (≈ 6.05 µM)
- MIC E. coli W3110 […] (E. coli W3110; diluted MH ([…] MH, pH 8.5) per Table 1 footnote b, 16–20 h at 37 °C): 2 µg/mL (≈ 1.51 µM)
- MIC P. aeruginosa PAO1, full MH at pH 7.4 (P. aeruginosa PAO1; PAO1, 4 h, pH 7.4): 4 ug/mL
- MIC P. aeruginosa PAO1 […] 7.4 (P. aeruginosa PAO1; Table S2, […] MH, pH 7.4): 2 µg/mL (≈ 1.51 µM)
- MIC P. aeruginosa PAO1 […] 8.5 (P. aeruginosa PAO1; Table S2, […] MH, pH 8.5): 4 µg/mL (≈ 3.03 µM)
- MIC P. aeruginosa PAO1 Full MH 7.4 (P. aeruginosa PAO1; Table S2, full MH, pH 7.4): 4 µg/mL (≈ 3.03 µM)
- MIC P. aeruginosa PAO1 Full MH 8.5 (P. aeruginosa PAO1; Table S2, full MH, pH 8.5): 16 µg/mL (≈ 12.1 µM)
- MIC P. aeruginosa PA14 4.13, […] MH at pH 8.5 (PA14 4.13 (phoQ); CSV, […] MH at pH 8.5): 2 ug/mL
- MIC P. aeruginosa PA14 4.13, full MH at pH 7.4 (PA14 4.13 (phoQ); CSV, full MH at pH 7.4): 4 ug/mL
- MIC PA14 4.13 (phoQ) (PA14 4.13 (phoQ); MH pH 7.4, 16–20 h at 37 °C): 4 µg/mL (≈ 3.03 µM)
- MIC P. aeruginosa PA14 4.13 (PA14 4.13 (phoQ); Table S3, […] MH at pH 8.5): 2 µg/mL (≈ 1.51 µM)
- MIC P. aeruginosa ZEM-1A, […] MH at pH 8.5 ([2]; CSV, […] MH at pH 8.5): 3 ug/mL
- MIC P. aeruginosa ZEM-1A, full MH at pH 7.4 ([2]; CSV, full MH at pH 7.4): 2 ug/mL
- MIC ZEM-1A ([2]; MH pH 7.4, 16–20 h at 37 °C): 2 µg/mL (≈ 1.51 µM)
- MIC P. aeruginosa ZEM-1A ([2]; Table S3, […] MH at pH 8.5): 2 to 4 µg/mL
- CD %α with 5 mM DPC ([3]; DichroWeb, Contin-LL): 41%
- CD %α with 20% TFE ([3]; DichroWeb, Contin-LL): 35%
- CD %α with 5 mM DPC ([3]; Table S2): 41%
- CD %α with 20% TFE ([3]; Table S2): 35%
